Read-outs that look alike come from different tables or passages of the source.
How the values were obtained:
[1] = tested on: Z-138 cells overexpressing full length (FL) MDM4; assay: Cell cycle analysis of transduced Z138 cell lines; type: cell-based, Human; conditions: 50 nM or 500 nM; 2, 3, or 4 days
Protocol: 1×10^6 Z138 cells were seeded in a 6-well tissue culture dish in a volume of 3 mL IMDM+10% horse serum per well. Lentiviruses (MDM4 or EGFP in pLEX vector) were prepared as previously described or purchased from Santa Cruz Biotechnology (cat. # sc-29435-V and sc-108080 for p53 shRNA or scrambled shRNA lentiviruses, respectively). Lentiviral particles were added to seeded cells at […] and supplemented with polybrene at 8 μg/mL. 6-well plates were sealed with Parafilm and spun at 1000×g for 90 minutes at 37° C. for lentiviral treatment. The contents of each well were then collected into separate 15 mL conical tubes and spun at 1000×g for 5 minutes. Supernatant (containing lentivirus and polybrene) was discarded and the cell pellet was resuspended in 3 mL of IMDM+10% horse serum. […]
Transduction efficiency was evaluated for EGFP-transduced cells using fluorescence microscopy. […]
Cells were seeded at 250,000 cells/well in 6-well tissue culture dishes in a volume of 3 mL IMDM+10% horse serum (supplemented with 0.5 μg/mL puromycin for transduced cell lines). […] Pellets were frozen at −80° C. until ready to process. […]
Samples were processed by FACS on a Becton Dickinson FACSCalibur machine. The percentage of cells in each cell cycle stage was determined using the cell cycle function on the gated single cell population with FlowJo V10 software.

Z138 cells = assay: Western analysis (sDMA, cleaved Caspase-3, cleaved PARP); type: cell-based, Human; conditions: 1 μM, 1-5 days
Protocol: Z138 cells were seeded at approximately […] in IMDM+10% horse serum media. Cells were treated with 1 μM of compound for 1, 2, 3, 4, or 5 days. Cell pellets were collected by centrifuging at 500×g for 5 minutes, washing once with PBS, and freezing at −80° C. until ready to be processed.
Protein lysates were prepared by adding RIPA buffer (Sigma R0278) containing protease inhibitor (about 5× the volume of the cell pellet, or roughly 250 μL) to each cell pellet and pipetting to resuspend. Samples were sonicated with 10×1 second pulses then centrifuged at maximum speed (13,300 RPM) for 6 minutes. Supernatant (200 μL) was transferred to a fresh Eppendorf tube, and pellets were discarded. Protein concentration was determined using a Pierce BCA Protein Assay kit.
Protein gel samples were prepared by combining 20 μg of lysate with appropriate volumes of Life Technologies NuPage Sample Reducing Agent, LDS Sample Buffer, and RIPA buffer. Gel samples were heated for 5-10 minutes at 100° C. in a heat block. A 15-well Invitrogen 4-12% Bis-Tris NuPAGE-SDS gel was loaded with a volume of 19 μL per well, and run in MES SDS buffer at 150V for about 1 hour or until maximal separation of bands was achieved.
Gels were transferred onto nitrocellulose membranes using an Invitrogen iBlot system. […]

[2] = tested on: sDMA methylation in Z-138 cells; assay: sDMA western blot, 10 kDa band to total SmD3; type: cell-based; conditions: Homo sapiens
Protocol: (§1) The measurement of the 10 kDa band was used to calculate the methylation IC50 values. […] Concentration-dependent decreases in the 10 kDa band were observed on day 4 in all cell lines tested with representative western blots shown for Z-138 and Maver-1 cell lines (FIG. 1). Levels of the 10 kDa band from the western blots were quantified by densitometry and ratios of 10 kDa band (postulated to be SmD3me2s) to total SmD3 were calculated to determine the IC50s (Table 2, n=1 for all samples).

[3] = tested on: sDMA methylation in Granta-519 cells; assay: sDMA western blot, 10 kDa band to total SmD3; type: cell-based; conditions: Homo sapiens
Protocol: as §1

[4] = tested on: sDMA methylation in Maver-1 cells; assay: sDMA western blot, 10 kDa band to total SmD3; type: cell-based; conditions: Homo sapiens
Protocol: as §1

[5] = tested on: sDMA methylation in Mino cells; assay: sDMA western blot, 10 kDa band to total SmD3; type: cell-based; conditions: Homo sapiens
Protocol: as §1

[6] = Body weight loss in Z-138 xenograft study; type: in vivo; conditions: 21 days
Protocol: Data presented in this example were determined after analysis of 21 day samples of mantle cell lymphoma tumors. Cmin PK samples were taken prior to the last dose on day 21. Tumors were excised, weighed and processed for methyl mark. Methyl mark reduction was measured in tumor samples and is shown as percent of vehicle control (POC). Both SYM11 and sDMA Elisa were used to measure methyl mark and the data shown is averaged from 10 animals. Tumor growth inhibition was determined using tumor volume reduction at day 21 expressed as a percent of POC. In vivo inhibition curves were also generated and IC50 values determined. Plasma levels from each group are averaged from 5 animals. […] The average body weight loss (BWL) in all groups was <6%. All doses tested show >50% TGI. […] The average BWL in all groups was <4%. The average BWL in all groups was <8%, except in the 100 mg/kg does group were 4 animals exceeded BWL of 15%.

[7] = 96 h, day 4, N = 1, read-out: sDMA Western blot IC50 10 kDa Band
[8] = Table 3, read-out: sDMA Western IC50

Structure (SMILES) | sensitivity of cells overexpressing full length (FL) MDM4 to PRMT5 inhibition [1] | cell death pathways (cleaved Caspase-3 and cleaved PARP) by Western (Z138 cells) | inhibition of PRMT5 (sDMA, symmetric dimethylarginine) by Western (Z138 cells) | IC50 [2, 7] | IC50 [2, 8] | IC50 [3, 7] | IC50 [3, 8] | IC50 ([4]; Maver1, 96 h, day 4, N = 1, read-out: sDMA Western blot IC50 10 kDa Band) | IC50 ([4]; Maver1, Table 3, read-out: sDMA Western IC50) | IC50 [5, 7] | IC50 [5, 8] | average body weight loss (BWL) in all groups [6]
O=C(NC[C@H](O)CN1CCc2ccccc2C1)c1ccnc(NC2CCC2)c1 [Formula C] | less sensitive | induction of cell death pathways | time-dependent inhibition |  |  |  |  |  |  |  |  | 
CC(=O)N1CCC(Nc2cc(C(=O)NC[C@H](O)CN3CCc4ccccc4C3)ccn2)CC1 [Formula B] |  |  |  | 1 nM | 1 nM | 0.3 nM | 0.3 nM | 0.1 nM | 0.1 nM | 2 nM | 2 nM | < 6%

— patent US10653693B2, “PRMT5 inhibitors and uses thereof” (Epizyme, Inc., priority 2014, dated 2020)
